From US20210267251A1, “COMPOSITIONS AND METHODS USING A NICOTINAMIDE ADENINE DINUCLEOTIDE (NAD+) PRECURSOR AND AT LEAST ONE KETONE OR KETONE PRECURSOR” (SOCIETE DES PRODUITS NESTLE S.A., priority 2018, published 2021)

Tested on: human iPSC-derived astrocytes
Experiment: Oxygen consumption (mitochondrial respiration) in human iPSC-derived astrocytes, Seahorse XF96
Assay type: cell-based
Settings: hiPSC-derived astrocytes; NR 0.5 mM for 24 hours; ketone bodies BHB (0.5 mM or 2 mM) or BHP for 1 h in KRBH 1 mM glucose; uncoupled with FCCP 1 μM; FIG. 6
Experimental: Differentiated human iPSC astrocytes were obtained from Cellular Dynamics International (CDI, Madison, Wis., USA). The cells were thawed according to the manufacturer's instructions. iCell astrocytes were cultured in DMEM supplemented with 10% fetal calf serum and N2 complement. Oxygen consumption in human iPSC-derived astrocytes was measured in a Seahorse XF96 instrument (Seahorse Bioscience, North Billerica, Mass., USA). Astrocytes were seeded directly into Seahorse 96-well tissue culture plates (XF96 FluxPaks no. 102416-100; Seahorse Bioscience) at a density of 40,000 cells per well. Cells were incubated for 24 hours with 0.5 mM of Nicotinamide riboside chloride (NR) or fresh medium before experiment. Four days after seeding, the cells were washed twice in KRBH 1 mM glucose and incubated for 1 h with the ketone bodies BHB (racemic (D,L) BHB) or BHP (D BHP) at the concentration indicated. The cells were maintained at 37° C. during the experiment. Mitochondrial respiration rates were determined every 6 minutes. […] The oxygen consumption rate in hiPSC-derived astrocytes was measured as an indication of mitochondrial function, using a Seahorse instrument. Through addition of the uncoupling agent FCCP, uncoupled (=maximal) respiration was determined.

SMILES: NC(=O)c1ccc[n+]([C@@H]2O[C@H](CO)[C@@H](O)[C@H]2O)c1 [NR, Nicotinamide riboside chloride]
- maximal (uncoupled) respiration, oxygen consumption rate: Neither ketone bodies alone nor NR treatment significantly increases maximal respiration
